In patent publication US20050106276A1, “Pharmaceutical composition made from Chinese traditional medecine and method of producing thereof” (Jiangsu Kanion Pharmaceutial Co. Ltd., priority 2001, published 2005):
Where a name gives a salt, the structure may show the parent alone.

Key:
[1] = system: experimental rats with hyperglycaemia; assay: blood glucose value of rats with hyperglycaemia lead by alloxan; type: in vivo, rat; details: alloxan rats serum
Description: 160 male rats, weighting 200˜250 g, were given alloxan on the dosage of 200 mg/kg by intraperitoneal injection. taking blood from eye sockets of the survivals 72 hours later, using evaluate kit evaluated serum glucose, select 40 rats with hyperglycosemia whose serum glucose value is 20˜25 mmol/L, Which were randomly divided into 4 groups: Model group, Positive medicine Phenformin group, High and low dose of invented capsule group. All rats were intragastric administration 1 time each day in 10 days; Take another 10 mice as normal control group. All mice were fasting diet 12 hours after last administration, then taking blood from eye sockets, separating blood serum, using evaluate kit evaluated serum glucose value with Glucose enzymic method, then using t-value method to compare the significance with model group.

[2] = system: experimental mice with hyperglycaemia; assay: blood glucose value of mice with hyperglycaemia lead by Streptozocin; type: in vivo, mouse; details: Streptozocin mice serum
Description: 100 male mice, weighting 25˜30 g, were given Streptozocin on the dosage of 180 mg/kg by intraperitoneal injection. taking blood from eye sockets of the survivals 72 hours later, using evaluate kit evaluated serum glucose, select 40 mice with hyperglycosemia whose serum glucose value is 18˜33 mmol/L, Which were randomly divided into 4 groups: Model group, Positive medicine Phenformin group, High and low dose of invented capsule group. All mice were intragastric administration 1 time each day in 10 days; Take another 10 mice as normal control group. All mice were fasting diet 12 hours after last administration, then taking blood from eye sockets, separating blood serum, using evaluate kit evaluated serum glucose value with Glucose enzymic method, then using t-value method to compare the significance with model group.

[3] = 0.1 g/kg intragastric daily 10 days

`[H]/N=C(/N)N/C(=N/[H])NCCc1ccccc1` [Phenformin, Phenformin Hydrochloride] was tested, and the “GLU After administration” value [1, 3] was 14.52 ± 4.99 mmol/L, the “GLU Before administration” value ([1]; baseline of 0.1 g/kg group) was 22.72 ± 1.53 mmol/L and the “GLU After administration” value [2, 3] was 12.51 ± 6.93 mmol/L. The “GLU Before administration” value ([2]; baseline of 0.1 g/kg group) was 25.43 ± 3.93 mmol/L.
